Measurements as given in article PMC11079024, “Identification of a family of species-selective complex I inhibitors as potential anthelmintics” (Nature Communications, 2024).
Where two headings read alike, the source gives them in different places.

Columns and labels:
[1] = biological target: C. elegans (N2) complex I (NADH:ubiquinone oxidoreductase) (Caenorhabditis elegans, UniProt P24887+Q93873+Q94360); assay: biochemical; format: biochemical
Summary of the method: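 Mitochondria, 0.2 mg/mL protein, freeze-thawed three times, assayed in 25 mM KPi pH 7.5 with BSA, 80 μM NADH, 60 μM decylubiquinone, 160 μM DCIP, antimycin A and KCN. Rate from initial linear slope of A600 over 15 min. % of solvent control.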

L1 wild-type C. elegans = details: 50 μM compound; […]; hit = relative motility below 0.25 3 hours after removal of KCN
in vitro = details: human

Sequence of C. elegans (N2) complex I (NADH:ubiquinone oxidoreductase) (Q94360 17-199): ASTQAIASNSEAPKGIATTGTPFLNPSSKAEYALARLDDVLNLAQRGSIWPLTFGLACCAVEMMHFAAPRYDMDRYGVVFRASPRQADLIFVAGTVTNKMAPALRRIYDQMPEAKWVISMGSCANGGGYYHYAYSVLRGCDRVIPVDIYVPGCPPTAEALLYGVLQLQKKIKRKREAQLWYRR
Sequence of C. elegans (N2) complex I (NADH:ubiquinone oxidoreductase) (P24887 whole entry): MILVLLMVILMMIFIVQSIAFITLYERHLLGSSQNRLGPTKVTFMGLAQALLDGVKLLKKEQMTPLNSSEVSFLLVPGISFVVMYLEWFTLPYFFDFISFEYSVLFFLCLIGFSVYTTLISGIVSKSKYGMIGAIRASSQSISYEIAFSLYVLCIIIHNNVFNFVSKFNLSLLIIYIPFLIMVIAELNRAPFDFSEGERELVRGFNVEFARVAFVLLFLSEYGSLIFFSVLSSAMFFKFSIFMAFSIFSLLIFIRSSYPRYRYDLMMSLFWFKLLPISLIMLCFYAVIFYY
Sequence of C. elegans (N2) complex I (NADH:ubiquinone oxidoreductase) (Q93873 31-482): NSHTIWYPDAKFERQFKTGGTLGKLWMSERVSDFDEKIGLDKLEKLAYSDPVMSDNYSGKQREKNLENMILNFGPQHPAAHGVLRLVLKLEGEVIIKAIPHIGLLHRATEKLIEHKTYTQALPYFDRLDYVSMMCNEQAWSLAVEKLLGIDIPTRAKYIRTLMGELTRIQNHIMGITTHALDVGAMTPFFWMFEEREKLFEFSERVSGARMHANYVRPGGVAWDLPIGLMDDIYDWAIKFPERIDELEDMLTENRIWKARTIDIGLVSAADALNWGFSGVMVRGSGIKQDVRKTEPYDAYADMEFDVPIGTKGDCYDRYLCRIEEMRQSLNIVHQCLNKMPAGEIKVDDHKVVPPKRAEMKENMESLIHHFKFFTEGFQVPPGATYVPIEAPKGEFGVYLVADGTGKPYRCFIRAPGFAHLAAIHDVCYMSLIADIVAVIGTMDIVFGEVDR

For `Cc1ccc2nc(C(C)c3ccc(CC(C)C)cc3)[nH]c2c1` (stereo not drawn) [STL482096], the IC50 ([1]; in vitro complex I dose response on C. elegans mitochondria, average of at least two biological replicates, fit in R (DRC), read-out: IC50 C. elegans complex I) was 910 nM, the “Log IC50 C. elegans complex I” value ([1]; log10 of IC50 in µM, C. elegans mitochondria) was -0.04 µM and the IC50 ([1]; wild-type (N2) mitochondria, read-out: C. elegans Complex I IC50) was 910 nM. For the same compound, the IC50 ([1]; wild-type C. elegans mitochondria, estimated from fitted dose-response curves, read-out: C. elegans Complex I IC50) was 910 nM, the “Screen "Hit"” value (L1 wild-type C. elegans) was “Y (hits were identified as compounds that reduced relative motility below 0.25 (75% reduction))” and the CC50 at 2 days (in vitro) was < 12500 nM.
